Measurements reported in PMC11920646 (Frontiers in Pharmacology, 2025).

System: LPS-induced IFN-γ release in human whole blood
Test: Inhibition of LPS-induced IFN-γ release in human whole blood
Type: cell-based
Settings: 24 h

IC50: 0.0134 ± 0.00795 µM
Compound: C[C@]12C=CC(=O)C=C1CC[C@@H]1[C@@H]2[C@@H](O)C[C@@]2(C)[C@H]1CC[C@]2(O)C(=O)CO [Prednisolone]
Inhibition of LPS-induced IFN-γ release: 99.3 ± 2.8%
Inhibition of LPS-induced IFN-γ release (listed as prednisolone): 99%
